From US20240277739A1, “NUTRITONAL COMPOSITIONS FOR GUT BARRIER FUNCTION” (N.V. Nutricia, priority 2021, published 2024)

What was measured:
[1] = test system: infant microbiota (pooled fecal samples from 3 healthy infants); assay: Fermentation of galactosyllactoses by infant fecal microbiota (i-Screen anaerobic colon model); design: species or system human; acetate / lactate: unit not given here; settings: for acetate / lactate: t = 24 h
Protocol: The effect of pure 3′-GL, 4′-GL, and 6′-GL of the three galactosyllactoses functionality (pH, lactate, acetate levels) was evaluated. Beta1,3-galactosyllactose (beat3′-GL), beta1,4-galactosyllactose (beta4′-GL) and beta1,6-galactosyllactose (beta6′-GL) were obtained from Carbosynth (Berkshire, UK) Measurements of all parameters were performed after a 24-hour incubation in the high-throughput anaerobic colon model, i-Screen™ (TNO, Zeist, the Netherlands).
Fecal samples from 3 healthy infants (aged 1-4 months) were pooled and activated for 4 hours in a modified standard ileal efflux medium (pH 6.0) at 37° C. under anaerobic conditions. Next, each GL was added. After an incubation for 24 hours at 37° C. under anaerobic conditions, samples were collected for further analysis and pH levels were immediately measured using a pH meter MultiCal pH 526 (WTW, Weilheim, Germany). The samples were centrifuged at 4,000 g for 5 minutes and the supernatant was filter sterilized using 0.45 μm filters. For the SCFA analysis, a mixture of formic acid ([…]), methanol and 2-ethyl butyric acid (internal standard, 2 mg/ml in methanol) was added to the filtered supernatant. A 3 μl sample with a split ratio of 75.0 was injected on a GC-column (ZB-5HT inferno, ID 0.52 mm, film thickness 0.10 μm; Zebron; phenomenex, USA) in a Shimadzu GC-2014 gas chromatograph. The levels of acetic acid and lactic acid were measured. For lactate analysis, the total of D- and L-lactate was determined the filtered supernatant by the Arena 20XL analyser. This assay is based on the D- and L-lactic acid assay kits (Thermo Fisher Scientific oy, www.e-labeling.eu/TSF9843061FU and www.e-labeling.eu/TSF9843081FU). The assay was performed following the manufacturer's instructions with one adaptation: the reagents DLac RI and LLac RI from the two kits were mixed in a 1:1 ratio to detect both L and D isomers of lactic acid simultaneously. Calibration of the assay was done with an ‘Acid combination standard’ (order number 984382) containing both L-lactic acid and D-lactic acid.

Caco-2 cell monolayer [2] = assay: TEER of Caco-2 monolayer with OA, PA, beta3′-GL and combinations (no DON); type: cell-based, human
Protocol: (§1) Caco-2 cells were used according to established methods. In brief: cells were cultured in Dulbecco's modified Eagle medium (DMEM) and seeded at a density of 0.3×10^5 cells into 0.3 cm^2 high pore density (0.4 μm) inserts with a polyethylene terephthalate membrane (BD Biosciences, Franklin Lakes, NJ, USA) placed in a 24-well plate. The Caco-2 cells were maintained in a humidified atmosphere of 95% air and 5% CO2 at 37° C. After 17-19 days of culturing, a confluent monolayer was obtained with a mean Transepithelial electrical resistance (TEER) exceeding 400 Ω cm^2 measured by a Millicell-Electrical Resistance System voltohm-meter (Millipore, Temecula, CA, USA).
(§2) Measurements of the transepithelial electrical resistance (TEER) and lucifer yellow (LY) permeability were conducted to investigate barrier integrity. For TEER measurements a Millicel-ERS voltohmmeter connected to a pair of chopsticks electrodes was used to measure the TEER values. Results are expressed as a percentage of the initial value. For paracellular tracer flux assay the membrane impermeable lucifer yellow (LY) (Sigma, St Luis, MO, USA) was added in a concentration of 16 μg/ml to the apical compartment in the transwell plate for 4 h, and the paracellular flux was determined by measuring the fluorescence intensity in the basolateral compartment with a spectrophotofluorimeter (FLUOstar Optima, BMG Labtech, Offenburg, Germany) set at excitation and emission wavelengths of 410 and 520 nm, respectively. Release of interleukin-8 (IL-8 or CXCL8), which is a typical marker for inflammation, was quantified in the medium of the apical side and the basolateral side of the Caco-2 transwell inserts in response to the treatments. CXCL8 concentrations were measured by using the human IL-8 ELISA assay (BD Biosciences, Pharmingem, San Diego, CA, USA) according to manufacturer's instructions. For more details on materials and methods see Akbari et al, 2016, Eur J Nutr. 56(5):1919-1930.
(§3) Barrier function experiments were performed using the method as described in example 3. Oleic acid (OA) and palmitic acid were obtained from Sigma-Aldrich. Palmitic acid was coupled to fatty acid free Bovine Serum Albumin (BSA, Roche) to make a 6:1 BSA-palmitic acid conjugate solution, which is needed to dissolve palmitic acid in culture medium and therefore common practice in the field (reference Alsabeeh et al, Biochim. Biophys Acta. 2018 February; 1863(2): 143-151). Throughout this document this conjugate solution will be abbreviated as PA.
Tables 5a and 5b show the effects of OA and PA and beta3′-GL and its combinations on the intestinal barrier function as measured by TEER.

Caco-2 cell monolayer [3] = assay: Lucifer yellow (LY) paracellular flux across Caco-2 monolayer, DON-induced impairment; type: cell-based, human; settings: 0.75 wt. % GL, 24 h pretreatment, then DON 4.2 μM 24 h
Protocol: (§4) beta1,3′-galactosyl-lactose (beta3′-GL), beta1,4′-galactosyllactose (beta4′-GL) and beta1,6′-galactosyl-lactose (beta6′-GL) were obtained from Carbosynth (Berkshire, UK), alpha1,3′-galactosyl-lactose (alpha3′-GL) was obtained from Elicityl (Crolles, France). Purified deoxydivalenol (DON) (D0156; Sigma Aldrich, St Luis, MO, USA) was dissolved in pure ethanol and stored at −20° C. Human epithelial colorectal adenocarcinoma (Caco-2) cells were obtained from American Type Tissue Collection (Code HTB-37) (Manasse, VA, USA, passage 90-102).
as §1
(§5) Caco-2 cell monolayers were thus grown in a transwell system, which is a model for intestinal barrier function. The monolayers were pretreated for 24 h with different GLs, including beta3′-GL, alpha3′-GL, beta4′-GL and beta6′-GL in a concentration of 0.75 wt. % of the GL, before being exposed to the fungal toxin deoxynivalenol (DON), which is a trigger and model compound to impair intestinal barrier. DON was diluted to a final concentration of 4.2 μM in complete cell medium and added to the apical side as well as to the basolateral side of the transwell inserts. […] Incubation with DON was 24 h.
as §2
(§6) For TOS concentrations of 0.25 wt. % (TOS 0.25) and 0.5 wt. % (TOS 0.5) were tested.
Barrier function experiments were performed using the method as described in example 3. Oleic acid (OA) and palmitic acid were obtained from Sigma-Aldrich. […]

Caco-2 cell monolayer [4] = assay: TEER of Caco-2 monolayer, DON-induced impairment of barrier integrity; type: cell-based, human; settings: for effect on DON-induced loss of epithelial barrier integrity, TEER (FIGS. 1A, 1B), in words: 0.75 wt. % GL, 24 h pretreatment, then DON 4.2 μM 24 h; for TEER in the presence of DON (FIG. 3), single ingredient, in words: DON 4.2 μM, 0.75 wt % beta3′-GL or 600 μM fatty acid alone
Protocol: as §4, §1, §5, §2, §6, §3

[5] = test system: T84 human intestinal epithelial cells; assay: TEER of T84 monolayers pre-incubated with fatty acids, SCFA mix or combination; type: cell-based; settings: for % TEER (24 h): relative to medium control at 24 h
Source text: The effect of palmitic acid and oleic acid combined with a mixture of short chain fatty acids (SCFA mix) having a concentration profile that is typical for fermentation of a mixture of galacto-oligosaccharides (GOS) derived from VivinalGOS and long chain fructo-oligosaccharides (RaftilineHP) in a ratio of 9/1 (w/w) on barrier permeability was investigated. The concentration profiles of SCFA is as disclosed in Example 3 of EP2100520 (incorporated by reference herein), specifically as shown in FIG. 3A of EP2100520 (incorporated by reference herein) (see second bar in FIG. 3A), i.e. about 75% being acetic acid. Oleic acid and palmitic acid were obtained from Sigma-Aldrich and coupled to fatty acid free Bovine Serum Albumin (BSA, Sigma-Aldrich) prior to cell treatment.
T84 human intestinal epithelial cells are commonly used to study intestinal barrier integrity in vitro. T84 cells (ATCC, USA) were cultured on 12 mm transwell inserts (0.4 μm, Corning Costrar, USA) in DMEM-F12 glutamax with penicillin-streptomycin (100 IU/ml), supplemented with […]. T84 cells were used 14 days after reaching confluence. Monolayers of T84 cultured on transwell filters were pre-incubated with fatty acids, SCFA mix or a combination thereof for a period of 24 hours.
Epithelial barrier integrity was assessed by measuring transepithelial resistance (TEER; Ω×cm^2) with the epithelial volt-ohm meter (Millicell ERS-2; Millipore USA). TEER measurements were performed at 0, 24, h of incubation. TEER values of the fatty acids (i.e. SCFA, OA, PA) are expressed relative to the medium control TEER values at 24 h.

Row | Compound | acetate ([1]; 3 mg/ml) | lactate ([1]; 3 mg/ml) | acetate ([1]; 9 mg/ml) | lactate ([1]; 9 mg/ml) | pH, acetate and lactate after fermentation, in words ([1]; 24 h incubation) | % TEER (24 h) (Caco-2 cell monolayer [2]; Table 5a: beta3′GL 0.75 w/v %, oleic acid 0, relative to the medium control) | % TEER (24 h) (Caco-2 cell monolayer [2]; Table 5b: 3′GL 0.75, palmitic acid 0) | effect on DON-induced loss of epithelial barrier integrity, LY flux (FIGS. 1C, 1D), in words (Caco-2 cell monolayer [3]) | effect on DON-induced loss of epithelial barrier integrity, TEER (FIGS. 1A, 1B), in words (Caco-2 cell monolayer [4]) | TEER in the presence of DON (FIG. 3), single ingredient, in words (Caco-2 cell monolayer [4]) | beta3′-GL concentration at which the effect on gut barrier function is observed (Caco-2 cell monolayer [4]; beta3′-GL content of the TOS tested, DON model) | effect on TEER at 100 μM fatty acid, in words (Caco-2 cell monolayer [2]; 100 μM fatty acid, data not shown) | % TEER (24 h) (Caco-2 cell monolayer [2]; Table 5a: oleic acid 600 μM, beta3′GL 0, relative to the medium control) | % TEER (24 h) ([5]; fatty acid 50 μM + SCFA mix 40 mM) | increase of gut barrier function (TEER) versus control ([5]; fatty acid 50 μM in combination with SCFA 40 mM, 24 h) | increase of gut barrier function expected for an additive effect ([5]; fatty acid 50 μM plus SCFA 40 mM, additive) | % TEER (24 h) ([5]; fatty acid 50 μM, SCFA mix 0 mM) | change of gut barrier function (TEER) versus control ([5]; single ingredient: fatty acid 50 μM or SCFA mix 40 mM, 24 h)
1 | Gal (beta 1-3)-Gal (beta 1-4)-Glc [beta3′-GL] | 61.3 | 0.0 | 77.1 | 1.3 | the highest levels of acetate and lactate and the lowest pH level | 117% | 129% | reduction in the DON-affected LY flux | increased TEER values | somewhat higher than in the control | lower than 0.17 wt. % | – | – | – | – | – | – | –
2 | OC[C@H]1O[C@@H](O[C@@H]2[C@H](O)[C@@H](O)[C@H](O[C@H]3[C@H](O)[C@@H](O)C(O)O[C@@H]3CO)O[C@@H]2CO)[C@H](O)[C@@H](O)[C@H]1O (stereo partly drawn) [beta4′-GL, Gal (beta 1-4)-Gal (beta 1-4)-Glc] | 52.2 | 0.0 | 65.4 | 3.6 | – | – | – | did not show a significant effect | did not show a significant effect | – | – | – | – | – | – | – | – | –
3 | CCCCCCCC/C=C\CCCCCCCC(=O)O [OA, oleic acid] | – | – | – | – | – | – | – | – | – | somewhat higher than in the control | – | improving effect on TEER was also observed | 138% | 210% | 110% | 94% | 134% | 34%
